The values below come from patent publication US8148391B2 (Cephalon, Inc., priority 2006, dated 2012).

Read-outs that look alike come from different tables or passages of the source. Where only a bound is given, the exact number is not on record here.

The target in experiment [1] is T1, baculovirus-expressed ALK (Homo sapiens, UniProt Q9UM73).
T1 construct: host or cells: baculovirus expression system
Nature of the experiment: ALK Kinase Assay (ELISA-type, time-resolved fluorescence). In kind it is biochemical. Summed up:
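Plates coated with phospholipase C-γ substrate (10 μg/mL in TBS); reaction started with 30 ng/ml ALK and run 15 min at 37° C. Phosphorylated substrate detected with Eu-N1-labeled PT66 antibody. IC50 from sigmoidal variable-slope fit of percent inhibition vs log concentration.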

The target in experiment [2] is T2, c-Met (cytoplasmic domain) (Homo sapiens, UniProt P08581).
T2 construct: 10 ng/mL c-Met (cytoplasmic domain, Invitrogen Corporation #PV3143); purchased Invitrogen Corporation PV3143
T2 sequence (P08581 956-1390 limits assumed): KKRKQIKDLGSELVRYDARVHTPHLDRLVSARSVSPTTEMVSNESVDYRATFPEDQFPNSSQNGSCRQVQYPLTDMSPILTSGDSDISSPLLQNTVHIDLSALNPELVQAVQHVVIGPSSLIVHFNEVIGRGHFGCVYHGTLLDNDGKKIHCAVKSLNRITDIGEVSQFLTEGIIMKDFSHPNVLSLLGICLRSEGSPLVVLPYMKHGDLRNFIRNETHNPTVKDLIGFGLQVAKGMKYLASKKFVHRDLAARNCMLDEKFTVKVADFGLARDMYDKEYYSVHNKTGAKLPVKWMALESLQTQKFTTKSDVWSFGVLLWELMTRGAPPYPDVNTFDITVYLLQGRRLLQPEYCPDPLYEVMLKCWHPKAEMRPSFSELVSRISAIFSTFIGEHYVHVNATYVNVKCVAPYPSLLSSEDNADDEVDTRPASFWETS
Kind of experiment: c-Met Kinase Assay (same methods as for ALK, with modifications). Format: biochemical. Summed up:
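Plates were coated with phospholipase C-γ substrate (10 μg/mL) in TBS, and the reaction was started with 10 ng/mL c-Met cytoplasmic domain and run 15 min at 37 °C. Phosphoproduct was detected with Eu-N1-labelled PT66 antibody. IC50 came from a variable-slope sigmoidal fit of percent inhibition vs log concentration.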

The mark [3] stands for this setting: ALK kinase inhibition, 1 μM ATP (Km level), read-out: ALK Activity.
The mark [4] stands for this setting: c-Met kinase inhibition, 1 μM ATP (Km level), read-out: cMet Activity.
[5] abbreviates: ALK kinase inhibition, 1 μM ATP, read-out: ALK Activity.
Where [6] appears, read: c-Met kinase inhibition, 1 μM ATP, read-out: cMet Activity.
Setting [7] is: 1 μM ATP (Km level), 30 ng/ml ALK, 37° C., 15 minutes, read-out: ALK Activity (ALK kinase inhibition, IC50 class).
The mark [8] stands for this setting: 1 μM ATP (Km level), 10 ng/mL c-Met, read-out: cMet Activity (c-Met kinase inhibition, IC50 class).
Where [9] appears, read: 1 μM ATP (Km level), read-out: ALK Activity (ALK Kinase Inhibition, IC50).
The mark [10] stands for this setting: 1 μM ATP (Km level), read-out: cMet Activity (c-Met Kinase Inhibition, IC50).

T1 sequence (Q9UM73 19-1620): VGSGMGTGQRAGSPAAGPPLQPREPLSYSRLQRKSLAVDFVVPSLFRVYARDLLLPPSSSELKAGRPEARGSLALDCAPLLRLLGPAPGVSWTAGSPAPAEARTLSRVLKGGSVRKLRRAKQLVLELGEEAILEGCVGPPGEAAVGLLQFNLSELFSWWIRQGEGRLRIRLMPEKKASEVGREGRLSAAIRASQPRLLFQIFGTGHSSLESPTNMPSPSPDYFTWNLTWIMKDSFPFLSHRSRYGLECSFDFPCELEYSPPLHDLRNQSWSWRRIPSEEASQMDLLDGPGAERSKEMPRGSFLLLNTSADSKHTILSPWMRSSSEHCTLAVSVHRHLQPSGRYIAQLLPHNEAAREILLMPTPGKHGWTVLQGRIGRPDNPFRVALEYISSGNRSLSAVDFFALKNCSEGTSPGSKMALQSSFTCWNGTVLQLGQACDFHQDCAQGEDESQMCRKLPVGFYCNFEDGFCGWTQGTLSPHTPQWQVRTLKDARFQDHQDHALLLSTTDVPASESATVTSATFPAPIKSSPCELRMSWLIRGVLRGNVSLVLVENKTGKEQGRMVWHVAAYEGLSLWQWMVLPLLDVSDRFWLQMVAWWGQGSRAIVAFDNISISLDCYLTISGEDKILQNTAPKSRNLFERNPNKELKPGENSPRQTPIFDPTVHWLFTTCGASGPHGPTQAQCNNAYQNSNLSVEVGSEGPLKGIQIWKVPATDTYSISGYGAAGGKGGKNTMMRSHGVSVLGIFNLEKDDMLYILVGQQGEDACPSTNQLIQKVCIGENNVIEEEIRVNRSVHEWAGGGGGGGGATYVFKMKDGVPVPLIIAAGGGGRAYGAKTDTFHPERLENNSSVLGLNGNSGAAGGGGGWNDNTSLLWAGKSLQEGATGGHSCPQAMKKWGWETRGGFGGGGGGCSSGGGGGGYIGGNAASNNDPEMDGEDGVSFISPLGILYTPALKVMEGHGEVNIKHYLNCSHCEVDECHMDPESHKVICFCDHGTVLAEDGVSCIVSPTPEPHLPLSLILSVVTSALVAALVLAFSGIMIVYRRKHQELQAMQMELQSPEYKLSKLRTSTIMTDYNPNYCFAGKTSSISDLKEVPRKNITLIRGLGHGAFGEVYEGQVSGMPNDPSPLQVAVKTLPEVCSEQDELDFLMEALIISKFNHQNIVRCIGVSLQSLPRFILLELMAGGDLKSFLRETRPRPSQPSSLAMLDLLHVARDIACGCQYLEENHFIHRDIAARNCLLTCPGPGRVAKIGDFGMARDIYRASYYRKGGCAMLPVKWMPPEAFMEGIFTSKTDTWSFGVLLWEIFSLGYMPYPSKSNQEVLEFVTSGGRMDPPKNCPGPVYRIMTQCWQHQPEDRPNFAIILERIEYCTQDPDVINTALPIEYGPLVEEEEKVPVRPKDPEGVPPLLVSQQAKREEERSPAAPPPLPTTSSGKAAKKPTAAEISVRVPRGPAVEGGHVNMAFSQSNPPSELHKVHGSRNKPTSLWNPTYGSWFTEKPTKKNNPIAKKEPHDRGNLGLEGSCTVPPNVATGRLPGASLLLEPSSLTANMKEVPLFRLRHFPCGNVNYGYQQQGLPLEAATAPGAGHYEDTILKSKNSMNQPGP

Regarding `COc1cc(N2CCOCC2)ccc1Nc1nc(Nc2ccc3c(c2OC)CCCC(=O)N3C)ncc1Cl` [Example 117, 7-[5-Chloro-4-(2-methoxy-4-morpholin-4-yl-phenylamino)-pyrimidin-2-ylamino]-6-methoxy-1-methyl-1,3,4,5-tetrahydro-benzo[b]azepin-2-one], the IC50 was less than 0.1 µM in experiment [1] (setting [3]) and greater than 10 µM in experiment [2] (setting [4]).
In the case of `CNC(=O)c1cccc(F)c1Nc1nc(Nc2ccc3c(c2)N(CCOC)CCCC3(C)C)ncc1Cl` [Example 1599, 2-{5-Chloro-2-[1-(2-methoxy-ethyl)-5,5-dimethyl-2,3,4,5-tetrahydro-1H-benzo[b]azepin-8-ylamino]-pyrimidin-4-ylamino}-3-fluoro-N-methyl-benzamide], the IC50 in experiment [1] (setting [5]) and in experiment [2] (setting [6]) was less than 0.1 µM in each case.
Turning to `CNC(=O)c1ccccc1Nc1nc(Nc2ccc3c(c2)NC(=O)CN(C)C3)ncc1Cl` [Example 1867, 2-[5-Chloro-2-(4-methyl-2-oxo-2,3,4,5-tetrahydro-1H-benzo[e][1,4]diazepin-8-ylamino)-pyrimidin-4-ylamino]-N-methyl-benzamide], the results for the IC50 in experiment [1] (setting [5]) and in experiment [2] (setting [6]) were 1 to 10 µM and less than 0.1 µM, respectively.
Consider `CNc1nc(N2CCOCC2)ccc1Nc1nc(Nc2cc3c(cc2OC)CCN(CC(=O)N(C)C)CC3)ncc1Cl` [Example 1209, 2-{7-[5-Chloro-4-(2-methylamino-6-morpholin-4-yl-pyridin-3-ylamino)-pyrimidin-2-ylamino]-8-methoxy-1,2,4,5-tetrahydro-benzo[d]azepin-3-yl}-N,N-dimethyl-acetamide], for which the values for the IC50 in experiment [1] (setting [7]) and in experiment [2] (setting [8]) were less than 0.1 µM and greater than 10 µM, respectively.
With `COc1cc(N2CCOCC2)ccc1Nc1nc(Nc2ccc3c(c2)CCN(C[C@H](OC)C(F)(F)F)CC3)ncc1Cl` [Example 337, 5-Chloro-N*4*-(2-methoxy-4-morpholin-4-yl-phenyl)-N*2*-[-((S)-3,3,3-trifluoro-2-methoxy-propyl)-2,3,4,5-tetrahydro-1H-benzo[d]azepin-7-yl]-pyrimidine-2,4-diamine], the IC50 in experiment [1] (setting [3]) was less than 0.1 µM; in experiment [2] (setting [4]) it was greater than 10 µM.
For `CCN1CC2CC(C1)c1cc(Nc3ncc(Cl)c(Nc4ccccc4C(=O)NC)n3)ccc12` (centres unmarked) [Example 156, 2-[5-Chloro-2-(10-ethyl-10-aza-tricyclo[6.3.1.0*2,7*]dodeca-2,4,6-trien-4-ylamino)-pyrimidin-4-ylamino]-N-methyl-benzamide], the IC50 in experiment [1] (setting [3]) and in experiment [2] (setting [4]) was less than 0.1 µM throughout.
Regarding `CNC(=O)c1ccccc1Nc1nc(Nc2cc3c(cc2OC)N(C)C(=O)OCC3)ncc1Cl` [Example 1505, 2-[5-Chloro-2-(3-methoxy-5-methyl-6-oxo-5,6,8,9-tetrahydro-7-oxa-5-aza-benzocyclohepten-2-ylamino)-pyrimidin-4-ylamino]-N-methyl-benzamide], the figures for the IC50 in experiment [1] (setting [5]) and in experiment [2] (setting [6]) were less than 0.1 µM and 1 to 10 µM, respectively.
`CCN1CCc2ccc(Nc3ncc(Cl)c(NCCNS(C)(=O)=O)n3)cc2CC1` [Example 298, N-{2-[5-Chloro-2-(3-ethyl-2,3,4,5-tetrahydro-1H-benzo[d]azepin-7-ylamino)-pyrimidin-4-ylamino]-ethyl}-methanesulfonamide]: the figures for the IC50 in experiment [1] (setting [3]) and in experiment [2] (setting [4]) were 0.1 to 1 µM and 1 to 10 µM, respectively.
For `COc1c(Nc2ncc(Cl)c(N[C@@H]3CCCC[C@H]3NS(C)(=O)=O)n2)ccc2c1C1CCC(C2)N1` (stereo partly drawn) [Example 92, N-{(1R,2R)-2-[5-Chloro-2-(3-methoxy-12-aza-tricyclo[7.2.1.0*2,7*]dodeca-2(7),3,5-trien-4-ylamino)-pyrimidin-4-ylamino]-cyclohexyl}-methanesulfonamide] the same measures were 1 to 10 µM and greater than 10 µM.
With `CCN1C(=O)CCCc2cc(Nc3ncc(Cl)c(Nc4ccc(N(C)C)cc4OC)n3)c(OC)cc21` [Example 1340, 7-[5-Chloro-4-(4-dimethylamino-2-methoxy-phenylamino)-pyrimidin-2-ylamino]-1-ethyl-8-methoxy-1,3,4,5-tetrahydro-benzo[b]azepin-2-one], the values for the IC50 in experiment [1] (setting [7]) and in experiment [2] (setting [8]) were less than 0.1 µM and greater than 10 µM, respectively.
Consider `CCN1CC(=O)N(CC)c2cc(Nc3ncc(Cl)c(N[C@H]4[C@@H](C(N)=O)[C@@H]5C=C[C@H]4C5)n3)c(OC)cc2C1` [Example 739, (1S,2,3R,4R)-3-[5-Chloro-2-(1,4-diethyl-7-methoxy-2-oxo-2,3,4,5-tetrahydro-1H-benzo[e][1,4]diazepin-8-ylamino)-pyrimidin-4-ylamino]-bicyclo(2.2.1)hept-5-ene-2-carboxylic acid amide], for which the results for the IC50 in experiment [1] (setting [9]) and in experiment [2] (setting [10]) were 0.1 to 1 µM and greater than 10 µM, respectively.
Turning to `CNC(=O)c1ccccc1Nc1nc(Nc2ccc3c(c2)CCC(=O)NC3(C)C)ncc1Cl` [Example 1827, 2-(5-Chloro-2-(1,1-dimethyl-3-oxo-2,3,4,5-tetrahydro-1H-benzo[c]azepin-7-ylamino)pyrimidin-4-ylamino)-N-methylbenzamide], the IC50 in experiment [1] (setting [5]) and in experiment [2] (setting [6]) was less than 0.1 µM in each case.
Take `CNC(=O)c1ccc(Nc2nc(Nc3cc4c(cc3OC)CCN(Cc3ncco3)CC4)ncc2Cl)c(OC)c1` [Example 1182, 4-[5-Chloro-2-(8-methoxy-3-oxazol-2-ylmethyl-2,3,4,5-tetrahydro-1H-benzo[d]azepin-7-ylamino)-pyrimidin-4-ylamino]-3-methoxy-N-methyl-benzamide]: the IC50 in experiment [1] (setting [7]) is less than 0.1 µM; in experiment [2] (setting [8]) it was greater than 10 µM.
With `CCN1C(=O)CCC(C)(C)c2ccc(Nc3ncc(Cl)c(Nc4ccccc4OCC#N)n3)cc21` [Example 1580, {2-[5-Chloro-2-(1-ethyl-5,5-dimethyl-2-oxo-2,3,4,5-tetrahydro-1H-benzo[b]azepin-8-ylamino)-pyrimidin-4-ylamino]-phenoxy}-acetonitrile], the IC50 in experiment [1] (setting [5]) was less than 0.1 µM; in experiment [2] (setting [6]), 0.1 to 1 µM.
For the compound `COc1cc2c(cc1Nc1ncc(Cl)c(Nc3ccccc3S(=O)(=O)N3CC[C@H](O)C3)n1)CCN(C[C@@H](C)O)CC2` [Example 1556, (S)-1-(2-{5-Chloro-2-[3-((R)-2-hydroxy-propyl)-8-methoxy-2,3,4,5-tetrahydro-1H-3-benzazepin-7-ylamino]-pyrimidin-4-ylamino}-benzenesulfonyl)-pyrrolidin-3-ol], the IC50 is less than 0.1 µM in experiment [1] (setting [5]) and 1 to 10 µM in experiment [2] (setting [6]).
Take `Cn1ccnc1-c1ccccc1Nc1nc(Nc2ccc3c(c2)CCC(F)(F)CC3)ncc1Cl` [Example 219, 5-Chloro-N*2*-(7,7-difluoro-6,7,8,9-tetrahydro-5H-benzocyclohepten-2-yl)-N*4*-[2-(1-methyl-1H-imidazol-2-yl)-phenyl]-pyrimidine-2,4-diamine]: the IC50 is 0.1 to 1 µM in experiment [1] (setting [3]) and greater than 10 µM in experiment [2] (setting [4]).
Consider `CC1(C)CCC(=O)Nc2cc(Nc3ncc(Cl)c(Nc4c(F)cccc4C(=O)NCC#N)n3)ccc21` [Example 1080, 2-[5-Chloro-2-(5,5-dimethyl-2-oxo-2,3,4,5-tetrahydro-1H-benzo[b]azepin-8-ylamino)-pyrimidin-4-ylamino]-N-cyanomethyl-3-fluoro-benzamide], for which the IC50 in experiment [1] (setting [7]) and in experiment [2] (setting [8]) was less than 0.1 µM in each case.
Consider `CCN1C(=O)CCCc2cc(Nc3ncc(Cl)c(N[C@@H]4[C@H]5CC[C@H](C5)[C@@H]4C(N)=O)n3)c(OC)cc21` (relative stereo) [Example 136, (2-exo,3-exo)-3-[5-Chloro-2-(1-ethyl-8-methoxy-2-oxo-2,3,4,5-tetrahydro-1H-benzo[b]azepin-7-ylamino)-pyrimidin-4-ylamino]-bicyclo[2.2.1]heptane-2-carboxylic acid amide], for which the figures for the IC50 in experiment [1] (setting [3]) and in experiment [2] (setting [4]) were less than 0.1 µM and greater than 10 µM, respectively.
Consider `COc1ccc(Nc2nc(Nc3ccc4c(c3)CCC(O)CC4)ncc2Cl)c2c1CN(C)C2=O` (centres unmarked) [Example 938, 7-[5-Chloro-2-(7-hydroxy-6,7,8,9-tetrahydro-5H-benzocyclohepten-2-ylamino)-pyrimidin-4-ylamino]-4-methoxy-2-methyl-2,3-dihydro-isoindol-1-one], for which the IC50 in experiment [1] (setting [9]) was 0.1 to 1 µM; in experiment [2] (setting [10]) it was 1 to 10 µM.
As for `COCCN1CCc2ccc(Nc3ncc(Cl)c(Nc4ccccc4OCC(N)=O)n3)cc2CC1` [Example 1241, 2-(2-{5-Chloro-2-[3-(2-methoxy-ethyl)-2,3,4,5-tetrahydro-1H-3-benzazepin-7-ylamino]-pyrimidin-4-ylamino}-phenoxy)-acetamide], the IC50 in experiment [1] (setting [7]) and in experiment [2] (setting [8]) was 0.1 to 1 µM in each case.
Take `COc1c(Nc2ncc(Cl)c(N[C@H]3[C@@H](C(N)=O)[C@@H]4C=C[C@H]3C4)n2)ccc2c1CCCC(N1CCOCC1)C2` (single isomer, unassigned) [Example 941]: the IC50 in experiment [1] (setting [9]) is less than 0.1 µM; in experiment [2] (read-out: cMet Activity (c-Met Kinase Inhibition, IC50), 1 μM ATP (Km level)) it was greater than 10 µM.
Consider `COc1cc2c(cc1Nc1ncc(Cl)c(Nc3ccccc3S(=O)(=O)N(C)C)n1)CCN(CCS(C)(=O)=O)CC2` [Example 1152, 2-{5-Chloro-2-[3-(2-methanesulfonyl-ethyl)-8-methoxy-2,3,4,5-tetrahydro-1H-benzo[d]azepin-7-ylamino]-pyrimidin-4-ylamino}-N,N-dimethyl-benzenesulfonamide], for which the IC50 in experiment [1] (setting [7]) is less than 0.1 µM; in experiment [2] (setting [8]) it was 1 to 10 µM.
